One experiment concerns the target PD-1/PD-L1 (Homo sapiens, UniProt Q9NZQ7). Briefly: PD-1/PD-L1 biochemical protein-protein interaction assay (ALPHA). It counts as binding. Particulars: 0.3 nM His tagged PD-L1, 2.5 nM biotinylated Fc-PD-1, 60 minutes at 25° C., read-out: IC50 PD-L1-PD-1 Alpha IC50-mono PD-L1-fcP-D1. A digest of the protocol: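 His-PD-L1 ECD 0.3 nM + biotin-Fc-PD-1 2.5 nM (final), 25 mM Hepes pH 7.4, 150 mM NaCl, 3.4 mM EDTA; 60 min, 25° C; anti-His acceptor/streptavidin donor ALPHA beads; decreased signal = blocked binding; 4-parameter IC50.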

The target in the next experiment is T1, PD-L1 (Homo sapiens, UniProt Q9NZQ7).
T1 construct: determine if they can specifically dimerize the extracellular domains of PD-L1
Briefly: PD-L1/PD-L1 dimerization biochemical protein-protein interaction assay (ALPHA). The class given is binding. Conditions: compound-induced PD-L1 dimerization, head prints '1 nM' (0.5 nM His-tagged PD-L1 and 0.5 nM FLAG-tagged PD-L1), read-out: AC50 PDL1 Dimer Alpha 1 nM. A digest of the protocol:
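After 2 h at 25 °C with compound, His- and FLAG-tagged PD-L1 ECDs (each 0.5 nM final; 25 mM Hepes pH 7.4, 150 mM NaCl) were detected by sequential anti-His acceptor and anti-FLAG donor bead incubations. Dose-response curves fitted to four-parameter equation for AC50.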

In another experiment the target is T2, PD-1/PD-L1 interaction (Homo sapiens, UniProt Q9NZQ7).
T2 construct: expressed in transfected cells; host or cells: CHO cells (aAPC-PD-L1) co-cultured with Jurkat cells overexpressing PD-1 and an NFAT-luciferase reporter
Briefly: PD-1/PD-L1 NFAT reporter co-culture assay. The class given is cell-based. Particulars: Jurkat PD-1 NFAT-luciferase cells co-cultured with aAPC-PD-L1 CHO cells, 6 hrs at 37° C.; read-out: EC50 NFAT Luciferase. A digest of the protocol:
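Restoration of TCR-driven NFAT luciferase signal: 6 h, 37 °C co-culture of PD-1 Jurkat reporter cells (pre-mixed with compound) on overnight-seeded PD-L1/anti-CD3 CHO monolayer. ONE-Glo luminescence; dose-response fitted to four-parameter equation for EC50.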

PD-1/PD-L1, sequence (Q9NZQ7 19-238 limits assumed): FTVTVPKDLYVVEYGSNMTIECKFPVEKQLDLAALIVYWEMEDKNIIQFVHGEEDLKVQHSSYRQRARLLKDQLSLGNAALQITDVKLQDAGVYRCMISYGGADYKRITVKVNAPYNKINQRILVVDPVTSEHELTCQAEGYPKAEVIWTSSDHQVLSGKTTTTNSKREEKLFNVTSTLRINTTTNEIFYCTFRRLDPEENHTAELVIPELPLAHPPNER
T1 sequence (Q9NZQ7 19-238 limits assumed): as above
T1 sequence (Q9NZQ7 19-238 limits assumed): as above
T2 sequence (Q9NZQ7 19-290): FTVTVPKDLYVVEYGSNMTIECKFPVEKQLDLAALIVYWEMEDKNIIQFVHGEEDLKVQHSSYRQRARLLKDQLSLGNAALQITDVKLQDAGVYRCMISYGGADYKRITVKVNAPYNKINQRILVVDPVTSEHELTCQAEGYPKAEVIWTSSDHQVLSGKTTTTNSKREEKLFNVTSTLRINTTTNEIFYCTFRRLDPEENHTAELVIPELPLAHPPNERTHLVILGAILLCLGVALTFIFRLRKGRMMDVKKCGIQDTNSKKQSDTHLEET

For the compound `COc1nc(O[C@H]2CCc3c(-c4cccc(-c5cnc(CNC[C@@H]6CCC(=O)N6)c(OC)n5)c4Cl)cccc32)c(Cl)cc1CN[C@@](C)(CO)C(=O)O` [Example 649], the IC50 (commonly the midpoint of a concentration-inhibition curve) on PD-1/PD-L1 was 0.064 nM. For the same compound, the AC50 (usually the concentration giving half of the maximal activity seen) at PD-L1 is 38.8 nM. For the same compound, at PD-1/PD-L1 interaction, the half-maximal effective concentration (EC50) – broadly, the midpoint of the concentration-response curve – worked out at 29 nM.
As for `COc1nc(O[C@H]2CCc3c(-c4cccc(-c5ccc(CNC[C@@H]6CCC(=O)N6)c(OCC#N)c5)c4Cl)cccc32)c(Cl)cc1CN[C@@H]1CCC[C@@H]1O` [Example 650], the IC50 on PD-1/PD-L1 is 0.288 nM. At PD-L1, the AC50 amounted to 8.2 nM. The EC50 at PD-1/PD-L1 interaction came to 39 nM.
`COc1nc(O[C@H]2CCc3c(-c4cccc(-c5ccc(CNC[C@@H]6CCC(=O)N6)c(OCC#N)n5)c4Cl)cccc32)c(Cl)cc1CN[C@@H]1CCC[C@@H]1O` [Example 651]: the IC50 on PD-1/PD-L1 worked out at 0.297 nM. Besides, the AC50 on PD-L1 was determined as 29.5 nM. Also, the EC50 at PD-1/PD-L1 interaction stood at 41 nM.
For `COc1nc(O[C@H]2CCc3c(-c4cccc(-c5cnc(CNC[C@@H]6CCC(=O)N6)c(OC)n5)c4Cl)cccc32)c(Cl)cc1CNC[C@@H]1CCC(=O)N1` [Example 652], in that order: 0.158 nM, 140 nM and 59 nM.
In the case of `N#CCOc1cc(-c2cccc(-c3cccc4c3CC[C@@H]4Oc3nc(OCC#N)c(CNC[C@@H]4CCC(=O)N4)cc3Cl)c2Cl)ccc1CNC[C@@H]1CCC(=O)N1` [Example 653], the IC50 at PD-1/PD-L1 is 0.17 nM. Besides, the AC50 at PD-L1 came to 105 nM. Besides, the EC50 on PD-1/PD-L1 interaction was 93 nM.
On to `COc1nc(O[C@H]2CCc3c(-c4cccc(-c5ccc(CNC[C@@H]6CCC(=O)N6)c(OCC#N)c5)c4Cl)cccc32)c(Cl)cc1CNC[C@@H](O)CC(=O)O` [Example 654], for which the IC50 at PD-1/PD-L1 turned out to be 0.09 nM. The AC50 on PD-L1 turned out to be 10.9 nM. On PD-1/PD-L1 interaction, the EC50 stood at 27 nM.
Take `COc1nc(O[C@H]2CCc3c(-c4cccc(-c5ccc(CNC[C@@H]6CCC(=O)N6)c(OCC#N)c5)c4Cl)cccc32)c(Cl)cc1CNC[C@@H]1CCC(=O)N1` [Example 655]: at PD-1/PD-L1, the IC50 is 0.404 nM. Besides, on PD-L1, the half-maximal activity concentration (AC50) stood at 26 nM. Also, the EC50 on PD-1/PD-L1 interaction is 28 nM.
The corresponding values for `COc1nc(O[C@H]2CCc3c(-c4cccc(-c5ccc(CNC[C@@H]6CCC(=O)N6)c(OCC#N)n5)c4Cl)cccc32)c(Cl)cc1CNC[C@@H]1CCC(=O)N1` [Example 656] are 0.29 nM, 37.7 nM and 24 nM.
Take `COc1nc(O[C@H]2CCc3c(-c4cccc(-c5ccc(CNC[C@@H]6CCC(=O)N6)c(OC(F)F)c5)c4Cl)cccc32)c(Cl)cc1CNC[C@@H]1CCC(=O)N1` [Example 657]: the IC50 at PD-1/PD-L1 turned out to be 0.795 nM. The AC50 on PD-L1 is 156 nM. Besides, at PD-1/PD-L1 interaction, the EC50 was determined as 197 nM.
The corresponding values for `COc1nc(-c2cccc(-c3cccc4c3CC[C@@H]4Oc3nc(OCC#N)c(CNC[C@@H]4CCC(=O)N4)cc3Cl)c2Cl)ccc1CNC[C@@H]1CCC(=O)N1` [Example 658] are 0.221 nM, 78.5 nM and 51 nM.
The corresponding values for `CS(=O)(=O)c1cncc(COc2nc(O[C@H]3CCc4c(-c5cccc(-c6ccc(CN)cc6)c5Cl)cccc43)c(Cl)cc2CNC[C@@H](O)CC(=O)O)c1` [Example 659] are 0.064 nM, 22.1 nM and 51 nM.
For the compound `C[C@@](CO)(NCc1cc(Cl)c(O[C@H]2CCc3c(-c4cccc(-c5ccc(OCCNCCO)cc5)c4Cl)cccc32)nc1OCc1cncc(S(C)(=O)=O)c1)C(=O)O` [Example 660], the IC50 on PD-1/PD-L1 is 0.064 nM. On PD-L1, the AC50 is 15.2 nM. Also, at PD-1/PD-L1 interaction, the EC50 turned out to be 107 nM.
In the case of `N#Cc1cncc(COc2nc(O[C@H]3CCc4c(-c5cccc(-c6ccc(OCCNCCO)cc6)c5Cl)cccc43)ccc2CNC[C@@H](O)CC(=O)O)c1` [Example 661], the IC50 on PD-1/PD-L1 amounted to 0.256 nM. Further, the AC50 on PD-L1 is 126 nM. For the same compound, the EC50 at PD-1/PD-L1 interaction was determined as 159 nM.
Turning to `N#Cc1cncc(COc2nc(O[C@H]3CCc4c(-c5cccc(-c6ccc(OCCNCCO)cc6)c5Cl)cccc43)c(Br)cc2CNC[C@@H](O)CC(=O)O)c1` [Example 662], the IC50 on PD-1/PD-L1 was found to be 0.139 nM. Further, the AC50 on PD-L1 is 14.5 nM. For the same compound, at PD-1/PD-L1 interaction, the EC50 was 83 nM.

The values above are taken from patent US12590062B2, “PD-1/PD-L1 inhibitors” (Gilead Sciences, Inc., priority 2017, dated 2026).
